Laboratory results taken from US20080009418A1, “Selective Inhibitors” (Alchemia LTD., priority 2004, published 2008).

What was measured:
[1] = target: T1, Human neuropeptide Y (NPY-Y1) (Homo sapiens, UniProt P25929); experiment: Radioligand binding, human neuropeptide Y NPY-Y1 membranes, FlashPlate, [125I]-PYY; details: compound at 10 μM, human NPY-Y1 membranes; for A9: inhibition of radioligand binding: [125I]-PYY
T1 construct: purchased Perkin Elmer Biosignal
T1 sequence (P25929 1-384): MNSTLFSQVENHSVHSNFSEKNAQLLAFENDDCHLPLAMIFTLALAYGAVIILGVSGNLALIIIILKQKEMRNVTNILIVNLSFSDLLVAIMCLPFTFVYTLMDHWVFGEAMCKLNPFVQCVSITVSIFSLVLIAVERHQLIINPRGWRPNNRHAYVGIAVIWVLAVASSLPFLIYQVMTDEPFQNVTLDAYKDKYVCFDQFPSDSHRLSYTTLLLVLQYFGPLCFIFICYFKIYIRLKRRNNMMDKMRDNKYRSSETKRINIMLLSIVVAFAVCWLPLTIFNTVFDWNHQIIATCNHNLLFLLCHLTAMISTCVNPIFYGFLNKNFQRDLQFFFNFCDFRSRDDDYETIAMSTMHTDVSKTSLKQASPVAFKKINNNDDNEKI
How it was run: (§1)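 Cloned human receptor membranes were coated onto FlashPlate wells and incubated with radioligand and compound (added from a 0.5 mM DMSO daughter plate) for 1 hour at room temperature in the dark. Scintillation counting gave percent inhibition, with DMSO defining total and reference ligand defining non-specific binding.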

[2] = target: T2, Human melanin-concentrating hormone (MCH1) (Homo sapiens, UniProt Q99705); experiment: Radioligand binding, human melanin-concentrating hormone MCH1 membranes, FlashPlate, [125I]-S36057; details: compound at 10 μM; for A6: inhibition of radioligand binding: [125I]-S36057, human MCH1 membranes
T2 construct: purchased Perkin Elmer Biosignal
How it was run: as §1

Human neurokinin (NK1) = target: T3, Human neurokinin (NK1) (Homo sapiens, UniProt P25103); experiment: Radioligand binding, human neurokinin NK1 membranes, filtration, [125I]-Substance P; details: compound at 10 μM; for A8: inhibition of radioligand binding: [125I]-Substance P, human NK1 membranes
T3 construct: purchased Perkin Elmer Biosignal
How it was run: (§2)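 Filtration binding on cloned human receptor membranes (1 Unit/well), [125I]-Substance P for NK1 and [3H]-Diprenorphine for KOP, 1 h at room temperature. Filters PEI-presoaked, washed with cold 50 mM Tris-HCl pH 7.4, counted by scintillation; percent inhibition calculated, reference ligand defining non-specific binding.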

Human μ-opioid (MOP) = target: T4, Human μ-opioid (MOP) (Homo sapiens, UniProt P35372); experiment: Radioligand binding, human μ-opioid (MOP) membranes, FlashPlate, [3H]-Naloxone; details: compound at 10 μM; for A7: inhibition of radioligand binding: [3H]-Naloxone, human MOP membranes
T4 construct: purchased Perkin Elmer Biosignal
How it was run: as §1

Human opioid (ORL1) = target: T5, Human opioid (ORL1) (Homo sapiens, UniProt P41146); experiment: Radioligand binding, human opioid ORL1 membranes, FlashPlate, [125I]-Nociceptin; details: compound at 10 μM, human ORL1 membranes; for A10: inhibition of radioligand binding: [125I]-Nociceptin
T5 construct: purchased Perkin Elmer Biosignal
How it was run: as §1

Mouse urotensin (mUR2) = target: T6, Mouse urotensin (mUR2) (Mus musculus, UniProt Q8VIH9); experiment: Radioligand binding, mouse urotensin mUR2 membranes, FlashPlate, [125I]-Urotensin II; details: compound at 10 μM; for A11: inhibition of radioligand binding: [125I]-Urotensin II, mouse mUR2 membranes
T6 construct: purchased Perkin Elmer Biosignal
T6 sequence (Q8VIH9 1-385): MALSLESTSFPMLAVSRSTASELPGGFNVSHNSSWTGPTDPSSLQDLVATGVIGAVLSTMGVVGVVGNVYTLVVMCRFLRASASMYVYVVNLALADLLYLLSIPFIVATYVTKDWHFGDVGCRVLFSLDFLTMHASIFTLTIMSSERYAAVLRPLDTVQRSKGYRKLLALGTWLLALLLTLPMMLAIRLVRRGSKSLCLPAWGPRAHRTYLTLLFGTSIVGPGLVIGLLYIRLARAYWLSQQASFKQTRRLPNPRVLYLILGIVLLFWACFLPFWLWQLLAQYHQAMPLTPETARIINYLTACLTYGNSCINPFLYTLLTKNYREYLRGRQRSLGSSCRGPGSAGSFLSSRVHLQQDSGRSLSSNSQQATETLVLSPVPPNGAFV
How it was run: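 Cloned mouse urotensin (mUR2) receptor membranes from Perkin Elmer Biosignal were immobilized in FlashPlate microplates using a proprietary coating. Each well got 19.5 μl buffer, then 0.5 μl of DMSO, reference ligand, or compound. Adding 5 μl of [125I]-Urotensin II, diluted to 5× final concentration in binding buffer, started binding. Plates were sealed with TopSeal-A and incubated 1 hour at room temperature in the dark. Wells were counted for 30 seconds each on a TopCount after a 60-second delay, and percentage inhibition was calculated.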

Human Melanocortin (MC4) = target: T7, Human Melanocortin (MC4) (Homo sapiens, UniProt P32245); experiment: Radioligand binding, human melanocortin MC4 membranes, FlashPlate, [125I]-NDP-αMSH; details: compound at 10 μM; for A4: inhibition of radioligand binding: [125I]-NDP-αMSH, human MC4 membranes
T7 construct: purchased Perkin Elmer Biosignal
How it was run: as §1

Human δ-opioid (DOP) = target: T8, Human δ-opioid (DOP) (Homo sapiens, UniProt P41143); experiment: Radioligand binding, human δ-opioid (DOP) membranes, FlashPlate, [3H]-Bremazocine; details: compound at 10 μM; for A1: inhibition of radioligand binding: [3H]-Bremazocine, human DOP membranes
T8 construct: purchased Perkin Elmer Biosignal
How it was run: as §1

Human melanocortin (MC5) = target: T9, Human melanocortin (MC5) (Homo sapiens, UniProt P33032); experiment: Radioligand binding, human melanocortin MC5 membranes, FlashPlate, [125I]-NDP-αMSH; details: compound at 10 μM; for A5: inhibition of radioligand binding: [125I]-NDP-αMSH, human MC5 membranes
T9 construct: purchased Perkin Elmer Biosignal
How it was run: as §1

Human κ-Opioid (KOP) = target: T10, Human κ-Opioid (KOP) (Homo sapiens, UniProt P41145); experiment: Radioligand binding, human κ-opioid (KOP) membranes, filtration, [3H]-Diprenorphine; details: compound at 10 μM; for A2: inhibition of radioligand binding: [3H]-Diprenorphine, human KOP membranes
T10 construct: purchased Perkin Elmer Biosignal
How it was run: as §2

Human Melanocortin (MC3) = target: T11, Human Melanocortin (MC3) (Homo sapiens, UniProt P41968); experiment: Radioligand binding, human melanocortin MC3 membranes, FlashPlate, [125I]-NDP-αMSH; details: compound at 10 μM; for A3: inhibition of radioligand binding: [125I]-NDP-αMSH, human MC3 membranes
T11 construct: purchased Perkin Elmer Biosignal
How it was run: as §1

T7 sequence (P32245 whole entry): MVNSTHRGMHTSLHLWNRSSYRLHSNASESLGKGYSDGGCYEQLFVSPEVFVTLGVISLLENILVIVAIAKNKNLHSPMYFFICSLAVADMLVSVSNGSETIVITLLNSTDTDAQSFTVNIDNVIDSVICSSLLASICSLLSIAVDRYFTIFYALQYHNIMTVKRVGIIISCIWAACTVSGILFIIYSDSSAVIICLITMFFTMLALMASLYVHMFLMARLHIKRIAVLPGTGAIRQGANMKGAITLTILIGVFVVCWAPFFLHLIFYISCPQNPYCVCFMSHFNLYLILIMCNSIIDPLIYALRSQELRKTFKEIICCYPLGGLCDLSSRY
T3 sequence (P25103 whole entry): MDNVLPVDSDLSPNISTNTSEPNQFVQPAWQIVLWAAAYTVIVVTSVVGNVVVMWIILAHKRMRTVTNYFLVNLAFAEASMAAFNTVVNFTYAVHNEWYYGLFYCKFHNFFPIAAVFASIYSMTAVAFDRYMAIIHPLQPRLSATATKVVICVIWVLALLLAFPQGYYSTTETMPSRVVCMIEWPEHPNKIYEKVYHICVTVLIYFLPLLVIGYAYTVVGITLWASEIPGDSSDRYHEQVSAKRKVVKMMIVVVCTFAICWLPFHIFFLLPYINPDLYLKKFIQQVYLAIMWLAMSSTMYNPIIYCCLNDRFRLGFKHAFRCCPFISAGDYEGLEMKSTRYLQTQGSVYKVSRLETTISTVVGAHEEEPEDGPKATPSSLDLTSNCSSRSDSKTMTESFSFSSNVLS
T4 sequence (P35372 whole entry): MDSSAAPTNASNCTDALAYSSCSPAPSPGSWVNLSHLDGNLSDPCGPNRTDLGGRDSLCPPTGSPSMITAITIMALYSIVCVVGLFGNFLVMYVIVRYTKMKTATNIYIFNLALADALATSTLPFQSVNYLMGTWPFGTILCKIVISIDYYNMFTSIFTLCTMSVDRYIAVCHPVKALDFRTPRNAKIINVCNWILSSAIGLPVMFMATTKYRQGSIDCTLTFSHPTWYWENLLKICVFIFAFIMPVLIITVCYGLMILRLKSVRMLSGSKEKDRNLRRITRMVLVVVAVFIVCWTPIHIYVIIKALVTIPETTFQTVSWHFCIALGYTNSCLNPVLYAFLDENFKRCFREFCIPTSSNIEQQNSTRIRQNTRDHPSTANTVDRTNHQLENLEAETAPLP
T2 sequence (Q99705 whole entry): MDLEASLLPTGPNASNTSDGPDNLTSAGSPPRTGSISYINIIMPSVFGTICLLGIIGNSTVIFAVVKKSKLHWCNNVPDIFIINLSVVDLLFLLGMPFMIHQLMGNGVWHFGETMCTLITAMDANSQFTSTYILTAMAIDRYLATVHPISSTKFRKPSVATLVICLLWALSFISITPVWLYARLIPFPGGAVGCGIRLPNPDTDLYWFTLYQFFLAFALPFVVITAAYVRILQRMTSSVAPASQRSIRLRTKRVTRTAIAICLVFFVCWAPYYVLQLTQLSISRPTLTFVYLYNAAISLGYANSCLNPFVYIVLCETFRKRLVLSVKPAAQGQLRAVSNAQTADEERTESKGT
T10 sequence (P41145 whole entry): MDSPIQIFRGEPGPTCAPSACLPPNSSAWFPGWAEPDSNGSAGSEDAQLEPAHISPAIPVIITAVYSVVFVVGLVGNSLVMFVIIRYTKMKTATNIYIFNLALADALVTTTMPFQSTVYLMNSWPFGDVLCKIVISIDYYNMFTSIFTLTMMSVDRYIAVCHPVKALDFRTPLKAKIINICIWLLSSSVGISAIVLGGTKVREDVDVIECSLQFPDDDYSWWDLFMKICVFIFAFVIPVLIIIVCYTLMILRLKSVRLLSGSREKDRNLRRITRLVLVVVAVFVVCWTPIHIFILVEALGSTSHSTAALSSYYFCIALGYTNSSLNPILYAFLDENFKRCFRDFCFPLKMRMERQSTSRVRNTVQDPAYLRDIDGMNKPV
T9 sequence (P33032 whole entry): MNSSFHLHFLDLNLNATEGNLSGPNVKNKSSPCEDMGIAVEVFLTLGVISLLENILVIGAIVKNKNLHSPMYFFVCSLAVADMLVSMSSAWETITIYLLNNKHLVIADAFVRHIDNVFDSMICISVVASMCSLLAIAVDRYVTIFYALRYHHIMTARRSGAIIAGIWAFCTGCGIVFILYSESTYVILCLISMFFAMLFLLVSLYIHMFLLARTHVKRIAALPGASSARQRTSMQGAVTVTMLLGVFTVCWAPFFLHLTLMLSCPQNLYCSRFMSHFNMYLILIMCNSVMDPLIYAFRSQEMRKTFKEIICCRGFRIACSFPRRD
T11 sequence (P41968 whole entry): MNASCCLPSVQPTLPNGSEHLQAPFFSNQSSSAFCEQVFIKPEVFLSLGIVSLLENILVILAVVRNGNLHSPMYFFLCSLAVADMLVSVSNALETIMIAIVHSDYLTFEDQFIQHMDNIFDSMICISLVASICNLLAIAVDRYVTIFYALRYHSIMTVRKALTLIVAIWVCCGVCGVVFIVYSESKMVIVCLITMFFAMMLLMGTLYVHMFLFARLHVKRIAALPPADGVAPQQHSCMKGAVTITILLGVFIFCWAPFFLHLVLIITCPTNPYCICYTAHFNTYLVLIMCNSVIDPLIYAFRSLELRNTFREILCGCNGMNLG
T8 sequence (P41143 whole entry): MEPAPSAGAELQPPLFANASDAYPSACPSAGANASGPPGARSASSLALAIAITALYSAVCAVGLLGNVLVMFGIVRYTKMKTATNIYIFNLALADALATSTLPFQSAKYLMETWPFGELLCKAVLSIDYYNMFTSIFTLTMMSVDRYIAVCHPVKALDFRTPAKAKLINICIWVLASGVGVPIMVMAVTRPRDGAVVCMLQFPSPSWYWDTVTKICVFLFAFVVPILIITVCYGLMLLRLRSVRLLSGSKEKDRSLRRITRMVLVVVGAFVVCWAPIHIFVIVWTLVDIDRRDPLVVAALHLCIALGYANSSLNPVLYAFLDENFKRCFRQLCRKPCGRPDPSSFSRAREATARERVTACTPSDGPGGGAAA
T5 sequence (P41146 whole entry): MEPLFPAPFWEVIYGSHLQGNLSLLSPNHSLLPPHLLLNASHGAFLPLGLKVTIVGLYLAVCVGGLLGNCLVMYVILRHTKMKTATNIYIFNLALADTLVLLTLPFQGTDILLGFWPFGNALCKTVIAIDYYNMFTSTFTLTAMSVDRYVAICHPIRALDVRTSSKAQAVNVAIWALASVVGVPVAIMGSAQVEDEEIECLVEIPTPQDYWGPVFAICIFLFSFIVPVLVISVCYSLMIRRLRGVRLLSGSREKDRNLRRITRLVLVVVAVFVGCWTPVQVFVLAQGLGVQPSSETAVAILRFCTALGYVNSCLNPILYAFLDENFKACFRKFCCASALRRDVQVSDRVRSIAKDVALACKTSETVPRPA

Row | SMILES | A9: inhibition of radioligand binding [1] | A6: inhibition of radioligand binding [2] | A8: inhibition of radioligand binding (Human neurokinin (NK1)) | A7: inhibition of radioligand binding (Human μ-opioid (MOP)) | A10: inhibition of radioligand binding (Human opioid (ORL1)) | A11: inhibition of radioligand binding (Mouse urotensin (mUR2)) | A4: inhibition of radioligand binding (Human Melanocortin (MC4)) | A1: inhibition of radioligand binding (Human δ-opioid (DOP)) | A5: inhibition of radioligand binding (Human melanocortin (MC5)) | A2: inhibition of radioligand binding (Human κ-Opioid (KOP)) | A3: inhibition of radioligand binding (Human Melanocortin (MC3)) | also measured
1 | NCCCC(=O)NC1C(OCc2ccccc2)OC(COCc2ccc(Cl)cc2)C(O)C1OCc1ccccc1 (stereo not drawn) [compound 380] | − (“−” indicates less than 50% inhibition at 10 μM) | − (“−” indicates less than 50% inhibition at 10 μM) | + (“+” indicates greater than 50% inhibition at 10 μM) | − (“−” indicates less than 50% inhibition at 10 μM) | − (“−” indicates less than 50% inhibition at 10 μM) | − (“−” indicates less than 50% inhibition at 10 μM) | + (“+” indicates greater than 50% inhibition at 10 μM) | − (“−” indicates less than 50% inhibition at 10 μM) | − (“−” indicates less than 50% inhibition at 10 μM) | − (“−” indicates less than 50% inhibition at 10 μM) | − (“−” indicates less than 50% inhibition at 10 μM) | –
2 | CO[C@H]1[C@H](O)[C@@H](COCc2ccc(-c3ccccc3)cc2)OC(OCc2ccccc2)[C@@H]1NC(=O)CNC(=N)N (stereo partly drawn) [compound 82] | – | – | – | – | – | – | – | – | – | – | – | A9 radioligand binding inhibition [1]: − (“−” indicates less than 50% inhibition at 10 μM); A6 radioligand binding inhibition ([2]; human MCH1 membranes): − (“−” indicates less than 50% inhibition at 10 μM); A8 radioligand binding inhibition (Human neurokinin (NK1); human neurokinin NK1 membranes): + (“+” indicates greater than 50% inhibition at 10 μM); A7 radioligand binding inhibition (Human μ-opioid (MOP); human μ-opioid (MOP) membranes): − (“−” indicates less than 50% inhibition at 10 μM); A10 radioligand binding inhibition (Human opioid (ORL1)): − (“−” indicates less than 50% inhibition at 10 μM); A11 radioligand binding inhibition (Mouse urotensin (mUR2); mouse urotensin mUR2 membranes): − (“−” indicates less than 50% inhibition at 10 μM); A4 radioligand binding inhibition (Human Melanocortin (MC4); human melanocortin MC4 membranes): + (“+” indicates greater than 50% inhibition at 10 μM); A1 radioligand binding inhibition (Human δ-opioid (DOP); human δ-opioid (DOP) membranes): − (“−” indicates less than 50% inhibition at 10 μM); A5 radioligand binding inhibition (Human melanocortin (MC5); human melanocortin MC5 membranes): − (“−” indicates less than 50% inhibition at 10 μM); A2 radioligand binding inhibition (Human κ-Opioid (KOP); human κ-opioid (KOP) membranes): − (“−” indicates less than 50% inhibition at 10 μM); A3 radioligand binding inhibition (Human Melanocortin (MC3); human melanocortin MC3 membranes): − (“−” indicates less than 50% inhibition at 10 μM)
3 | N=C(N)NCCC(=O)NC1C(OCc2ccc(Cl)cc2)OC(COCc2ccccc2)C(O)C1OCc1ccc2ccccc2c1 (stereo not drawn) [compound 430] | − (“−” indicates less than 50% inhibition at 10 μM) | + (“+” indicates greater than 50% inhibition at 10 μM) | + (“+” indicates greater than 50% inhibition at 10 μM) | − (“−” indicates less than 50% inhibition at 10 μM) | + (“+” indicates greater than 50% inhibition at 10 μM) | − (“−” indicates less than 50% inhibition at 10 μM) | + (“+” indicates greater than 50% inhibition at 10 μM) | − (“−” indicates less than 50% inhibition at 10 μM) | + (“+” indicates greater than 50% inhibition at 10 μM) | − (“−” indicates less than 50% inhibition at 10 μM) | + (“+” indicates greater than 50% inhibition at 10 μM) | –
